“Also recorded” adds a separate entry of the source. Where only a bound is given, the exact number is not on record here.

The test system of series [1] is Trypanosoma brucei brucei bloodstream-form (strain 427). Nature of the series: Trypanocidal activity, Alamar Blue viability, 72 h. It is filed as cell-based. The conditions noted are these: for Selectivity Index: HeLa EC50 versus T. brucei EC50; for combined trypanocidal action of 22s with nifurtimox: Figure 4. A general note: The colour change of resazurin is a common sign of viable cells or microbes.

For series [2], the system named is 22s-resistant T. brucei. Nature of the series: Trypanocidal activity against cloned 22s-resistant cell line. The class given is cell-based, Trypanosoma brucei. The conditions noted are these: 22s in 22s-resistant cells versus nifurtimox in wild-type.
Series [3] concerns human African trypanosomiasis. Conditions: cited from earlier work.
The subject of series [4] is Chagas’ disease. The conditions noted are these: patients with Chagas’ disease; cited from earlier work.
The test system of series [5] is nifurtimox-resistant T. brucei. Nature of the series: Trypanocidal activity against cloned nifurtimox-resistant cell line. It is filed as cell-based, Trypanosoma brucei.

For the molecule `CCOC(=O)c1cc(CC)sc1NC(=O)c1ccc([N+](=O)[O-])o1` [Compound 12a, Ethyl 5-Ethyl-2-(5-nitrofuran-2-carboxamido)thiophene-3-carboxylate], in series [1], the “Selectivity Index” value is recorded as more than 640.
For the molecule `CCCCc1cc(C(=O)OCC)c(NC(=O)c2ccc([N+](=O)[O-])o2)s1` [Compound 12b], the “Selectivity Index” value in series [1] is more than 160.
The same measure, in the same setting: the same measure for `CCCCOC(=O)c1cc(CC)sc1NC(=O)c1ccc([N+](=O)[O-])o1` [Compound 12d]: more than 625.
Still for that read-out and setting: in the case of `CCNC(=O)c1cc(CC)sc1NC(=O)c1ccc([N+](=O)[O-])o1` [Compound 12e] it was more than 136; in that of `CCCCNC(=O)c1cc(CC)sc1NC(=O)c1ccc([N+](=O)[O-])o1` [Compound 12f], more than 60; in that of `CCc1cc(C(N)=O)c(NC(=O)c2ccc([N+](=O)[O-])o2)s1` [Compound 12g, N-(3-Carbamoyl-5-ethylthiophen-2-yl)-5-nitrofuran-2-carboxamide], more than 1155.
The same measure, in the same setting: the same measure for `CCc1cc(C(=O)NCCO)c(NC(=O)c2ccc([N+](=O)[O-])o2)s1` [Compound 12h]: more than 253.
With `O=C(Nc1cccs1)c1ccc([N+](=O)[O-])o1` [Compound 12j], in series [1], the “Selectivity Index” value was more than 322.
As for `CCOC(=O)c1ccsc1NC(=O)c1ccc([N+](=O)[O-])o1` [Compound 12k], the “Selectivity Index” value in series [1] is more than 278.
Regarding `CCc1cc(C(N)=O)c(N)s1` [Compound 13g], the “activity against T. brucei (in words)” value in series [1] is “inactive”.
Same read-out and setting: the same measure for `CCOC(=O)c1cc(CC)sc1NC(=O)c1ccco1` [Compound 18a]: “no activity”.
On the same count and under the same terms, the same measure for `COC(=O)c1ccc([N+](=O)[O-])o1` [Compound 19]: “inactive”.
For the molecule `CCc1cc(C(N)=O)c(NC(=O)c2cccc([N+](=O)[O-])c2)s1` [Compound 20b], the “Selectivity Index” value in series [1] is listed as more than 8.
The same measure, in the same setting: the same measure for `O=C(Nc1ccccc1)c1ccc([N+](=O)[O-])o1` [Compound 22b]: more than 710; for `O=C(Nc1cccc(Br)c1)c1ccc([N+](=O)[O-])o1` [Compound 22f]: more than 192; for `COc1cccc(NC(=O)c2ccc([N+](=O)[O-])o2)c1` [Compound 22g]: more than 345.
The same measure, in the same setting: the same measure for `O=C(Nc1ccc(C(F)(F)F)cc1)c1ccc([N+](=O)[O-])o1` [Compound 22h, 5-Nitro-N-(4-(trifluoromethyl)phenyl)furan-2-carboxamide]: more than 158.
As to `O=C(Nc1ccc(Cl)cc1)c1ccc([N+](=O)[O-])o1` [Compound 22i], the “Selectivity Index” value in series [1] is listed as more than 48.
Same read-out and setting: the same measure for `COC(=O)c1ccc(NC(=O)c2ccc([N+](=O)[O-])o2)cc1` [Compound 22j]: more than 29.
In the case of `COc1ccc(NC(=O)c2ccc([N+](=O)[O-])o2)cc1` [Compound 22k], the “Selectivity Index” value in series [1] is on record as more than 261.
For `O=C(NCc1cccc(C(F)(F)F)c1)c1ccc([N+](=O)[O-])o1` [Compound 22l, 5-nitro-N-(3-(trifluoromethyl)benzyl)furan-2-carboxamide], in series [1], the “Selectivity Index” value was more than 1149.
The same measure, in the same setting: the same measure for `COc1cc(NC(=O)c2ccc([N+](=O)[O-])o2)cc(C(F)(F)F)c1` [Compound 22m]: more than 752.
As for `O=C(Nc1cc(C(F)(F)F)cc(C(F)(F)F)c1)c1ccc([N+](=O)[O-])o1` [Compound 22n], the “Selectivity Index” value in series [1] was more than 78.
On the same count and under the same terms, the same measure for `O=C(Nc1ccc(O)cc1)c1ccc([N+](=O)[O-])o1` [Compound 22p]: more than 50; for `O=C(Nc1ccc(O)c(C(F)(F)F)c1)c1ccc([N+](=O)[O-])o1` [Compound 22r]: more than 9.
Regarding `C=CCOc1ccc(NC(=O)c2ccc([N+](=O)[O-])o2)cc1C(F)(F)F` [Compound 22s, N-(4-(Allyloxy)-3-(trifluoromethyl)phenyl)-5-nitrofuran-2-carboxamide], the “potency in 22s-resistant cells relative to nifurtimox in wild-type T. brucei” value in series [2] is recorded as approximately 70 times. For the same molecule, the “Selectivity Index” value in series [1] was more than 8330. The “combined trypanocidal action of 22s with nifurtimox” value in series [1] (nifurtimox <700 nM, EC50 of 22s) is reported as “synergy can be observed; also recorded: synergistic relationship”; in series [1] (nifurtimox above 700 nM), “distinct lack of synergy”.
On to `C=CCOc1ccc(N(CC=C)C(=O)c2ccc([N+](=O)[O-])o2)cc1C(F)(F)F` [Compound 22t], for which the “Selectivity Index” value in series [1] was more than 9.
Regarding `COc1ccc(NC(=O)c2ccc([N+](=O)[O-])o2)cc1C` [Compound 22v], the “Selectivity Index” value in series [1] is given as more than 525.
`Nc1nc(N)nc(Nc2ccc([As]3SCC(CO)S3)cc2)n1` (stereo not shown) [Melarsoprol (3), melarsoprol]: in series [3] (HAT patients), the “death, share of cases” value was approximately 6%. Further, the treatment failure rate in series [3] (in certain areas) was not above 30%.
As for `CC1CS(=O)(=O)CCN1/N=C/c1ccc([N+](=O)[O-])o1` (stereo not shown) [Nifurtimox (5), Nifurtimox], the “treatment cessation due to adverse side effects, share of patients” value in series [4] is on record as “over 30%”. Moreover, the EC50 came to 20.9 ± 1.7 µM in series [5] (Trypanosoma brucei, read-out: EC50, nifurtimox resistant cells) and 2100 ± 200 nM in series [1] (read-out: T. brucei EC50, wild-type bloodstream form, 72 h). In series [5] (nifurtimox-resistant versus wild-type), the “fold increase in EC50 (less sensitive) versus wild-type cells” value was 9–10 fold.

By EC50 is commonly meant the concentration giving half of the maximal effect.

These data come from publication PMC3579312 (Journal of Medicinal Chemistry, 2013).
